Laboratory results as given in ChEMBL document CHEMBL1201862, “PubChem BioAssay data set” (2004).
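Results reflect a 48-hour exposure of cells in 96-well plates to compound at five concentrations. At the GI50, growth is halved.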 Activity calls are given as the source filed them. No stated cut-off is given here; in the data, active = GI50 up to about 1.1 µM and inactive = higher.

Key:
Experiment in all cases: NCI-60 cell line screen, 48 h
[1] = test system: DMS-114
[2] = test system: NCI-H226
[3] = test system: SW-620
[4] = test system: NCI-H23
[5] = test system: SK-OV-3
[6] = test system: SK-MEL-5
[7] = test system: RXF 393
[8] = test system: HL-60
[9] = test system: HT-29
[10] = test system: RXF 631
[11] = test system: A549
[12] = test system: M19-MEL
[13] = test system: UO-31
[14] = test system: OVCAR-3
[15] = test system: HCT-15
[16] = test system: HCT-116
[17] = test system: UACC-257
[18] = test system: NCI-H522
[19] = test system: HOP-62
[20] = test system: UACC-62
[21] = test system: OVCAR-5
[22] = test system: LXFL 529
[23] = test system: LOX IMVI
[24] = test system: K562
[25] = test system: MOLT-4
[26] = test system: SR
[27] = test system: KM12
[28] = test system: COLO 205
[29] = test system: SN12C
[30] = test system: SK-MEL-2
[31] = test system: 786-0
[32] = test system: SF-539
[33] = test system: XF498
[34] = test system: TK-10
[35] = test system: IGROV-1
[36] = test system: SK-MEL-28
[37] = test system: SNB-19
[38] = test system: CCRF-CEM
[39] = test system: OVCAR-8
[40] = test system: OVCAR-4
[41] = test system: DLD-1
[42] = test system: KM-20L2
[43] = test system: SNB-75
[44] = test system: DMS-273
[45] = test system: SNB-78
[46] = test system: U-251
[47] = test system: M14
[48] = test system: Malme-3M
[49] = test system: HOP-18
[50] = test system: ACHN
[51] = test system: EKVX
[52] = test system: A498
[53] = test system: SF-295
[54] = test system: HCC 2998
[55] = test system: NCI-H460
[56] = test system: CAKI-1
[57] = test system: SF-268
[58] = test system: RPMI-8226
[59] = test system: HOP-92

With COC(=O)/C(=N\NC(N)=O)C(C(=O)C=C(C)C)C(=O)C(=O)Nc1ccc(Cl)c(Cl)c1 (stereo unspecified) the GI50 [1] was > 100 µM (inactive), the GI50 [2] was > 100 µM (inactive) and the GI50 [3] was > 100 µM (inactive). For the same molecule, the GI50 [4] was > 100 µM (inactive), the GI50 [5] was > 100 µM (inactive) and the GI50 [6] was > 100 µM (inactive). For the same molecule, the GI50 [7] was > 100 µM (inactive), the GI50 [8] was > 100 µM (inactive) and the GI50 [9] was > 100 µM (inactive). For the same molecule, the GI50 [10] was > 100 µM (inactive), the GI50 [11] was > 100 µM (inactive) and the GI50 [12] was > 100 µM (inactive). For the same molecule, the GI50 [13] was > 100 µM (inactive), the GI50 [14] was > 100 µM (inactive) and the GI50 [15] was greater than 100 µM. For the same molecule, the GI50 [16] was > 100 µM (inactive), the GI50 [17] was > 100 µM (inactive) and the GI50 [18] was > 100 µM (inactive). For the same molecule, the GI50 [19] was > 100 µM (inactive), the GI50 [20] was > 100 µM (inactive) and the GI50 [21] was > 100 µM (inactive). For the same molecule, the GI50 [22] was > 100 µM (inactive), the GI50 [23] was > 100 µM (inactive) and the GI50 [24] was > 100 µM (inactive). The GI50 [25] was > 100 µM (inactive), the GI50 [26] was > 100 µM (inactive) and the GI50 [27] was > 100 µM (inactive). For the same molecule, the GI50 [28] was > 100 µM (inactive), the GI50 [29] was > 100 µM (inactive) and the GI50 [30] was > 100 µM (inactive). For the same molecule, the GI50 [31] was > 100 µM (inactive), the GI50 [32] was > 100 µM (inactive) and the GI50 [33] was > 100 µM (inactive). For the same molecule, the GI50 [34] was > 100 µM (inactive), the GI50 [35] was > 100 µM (inactive) and the GI50 [36] was > 100 µM (inactive). The GI50 [37] was > 100 µM (inactive), the GI50 [38] was > 100 µM (inactive) and the GI50 [39] was > 100 µM (inactive). For the same molecule, the GI50 [40] was > 100 µM (inactive), the GI50 [41] was > 100 µM (inactive) and the GI50 [42] was > 100 µM (inactive). The GI50 [43] was > 100 µM (inactive), the GI50 [44] was > 100 µM (inactive) and the GI50 [45] was > 100 µM (inactive). The GI50 [46] was > 100 µM (inactive), the GI50 [47] was > 100 µM (inactive) and the GI50 [48] was > 100 µM (inactive). The GI50 [49] was > 100 µM (inactive), the GI50 [50] was > 100 µM (inactive) and the GI50 [51] was > 100 µM (inactive). The GI50 [52] was > 100 µM (inactive), the GI50 [53] was > 100 µM (inactive) and the GI50 [54] was > 100 µM (inactive). The GI50 [55] was > 100 µM (inactive), the GI50 [56] was > 100 µM (inactive) and the GI50 [57] was > 100 µM (inactive).

For CC(=O)N1C/C(=C\c2ccc(N(C)C)cc2)C(=O)/C(=C/c2ccc(N(C)C)cc2)C1, the GI50 [1] was 30.2 µM (inactive), the GI50 [2] was 57.9 µM (inactive) and the GI50 [3] was 41.5 µM (inactive). For the same molecule, the GI50 [4] was > 100 µM (inactive), the GI50 [5] was 55.7 µM (inactive) and the GI50 [6] was 54.2 µM (inactive). For the same molecule, the GI50 [7] was 41.6 µM (inactive), the GI50 [8] was 29.9 µM (inactive) and the GI50 [9] was 36.6 µM (inactive). For the same molecule, the GI50 [10] was 55.2 µM (inactive), the GI50 [11] was > 100 µM (inactive) and the GI50 [12] was 33.6 µM (inactive). The GI50 [13] was > 100 µM (inactive), the GI50 [14] was 20.4 µM (inactive) and the GI50 [15] was greater than 100 µM. For the same molecule, the GI50 [16] was 40.6 µM (inactive), the GI50 [17] was 47.4 µM (inactive) and the GI50 [58] was > 100 µM (inactive). The GI50 [19] was > 100 µM (inactive), the GI50 [20] was 30.1 µM (inactive) and the GI50 [21] was > 100 µM (inactive). The GI50 [22] was 64 µM (inactive), the GI50 [23] was 35.3 µM (inactive) and the GI50 [24] was 60 µM (inactive). The GI50 [25] was 51.4 µM (inactive), the GI50 [26] was 35.6 µM (inactive) and the GI50 [27] was 35.7 µM (inactive). The GI50 [28] was > 10 µM (inactive), the GI50 [29] was 72.3 µM (inactive) and the GI50 [31] was 39.4 µM (inactive). For the same molecule, the GI50 [32] was 27.1 µM (inactive), the GI50 [33] was > 100 µM (inactive) and the GI50 [34] was 75.7 µM (inactive). The GI50 [35] was 53.2 µM (inactive), the GI50 [36] was > 100 µM (inactive) and the GI50 [59] was > 100 µM (inactive). For the same molecule, the GI50 [37] was 24.8 µM (inactive), the GI50 [38] was 46.9 µM (inactive) and the GI50 [39] was 84.1 µM (inactive). For the same molecule, the GI50 [40] was > 100 µM (inactive), the GI50 [41] was 68.1 µM (inactive) and the GI50 [42] was 28.7 µM (inactive). The GI50 [43] was 17.2 µM (inactive), the GI50 [44] was 49.8 µM (inactive) and the GI50 [45] was 85.9 µM (inactive). The GI50 [46] was 31.1 µM (inactive), the GI50 [47] was 40.1 µM (inactive) and the GI50 [48] was 75.7 µM (inactive). The GI50 [49] was 71.9 µM (inactive), the GI50 [50] was 87.5 µM (inactive) and the GI50 [52] was 33.5 µM (inactive). For the same molecule, the GI50 [53] was 52.6 µM (inactive), the GI50 [54] was 58.2 µM (inactive) and the GI50 [56] was 41.1 µM (inactive). The GI50 [57] was 66.2 µM (inactive).

In the case of Cc1cccc2[n+]1[C@H]1[C@H]([C@@H]3O[C@H]1c1ccccc13)[S+]([O-])N2 (stereo partly specified), the GI50 [1] is reported as 22.7 µM (inactive), the GI50 [3] is reported as > 100 µM (inactive) and the GI50 [5] is reported as > 100 µM (inactive). For the same molecule, the GI50 [7] was 89.1 µM (inactive), the GI50 [8] was 24.4 µM (inactive) and the GI50 [9] was 34.4 µM (inactive). The GI50 [10] was > 100 µM (inactive), the GI50 [11] was 63.2 µM (inactive) and the GI50 [12] was 29.9 µM (inactive). The GI50 [13] was 64.7 µM (inactive), the GI50 [14] was 35.9 µM (inactive) and the GI50 [16] was 30.3 µM (inactive). The GI50 [17] was 32.5 µM (inactive), the GI50 [58] was 10.8 µM (inactive) and the GI50 [18] was 34.8 µM (inactive). The GI50 [19] was 48.1 µM (inactive), the GI50 [21] was 80.7 µM (inactive) and the GI50 [22] was 33.7 µM (inactive). The GI50 [23] was 25.9 µM (inactive), the GI50 [24] was 23 µM (inactive) and the GI50 [25] was 38.2 µM (inactive). For the same molecule, the GI50 [27] was 42.4 µM (inactive), the GI50 [28] was 61.1 µM (inactive) and the GI50 [30] was 25.2 µM (inactive). The GI50 [31] was > 100 µM (inactive), the GI50 [32] was 77.6 µM (inactive) and the GI50 [33] was 20.2 µM (inactive). The GI50 [34] was 90.4 µM (inactive), the GI50 [35] was 32.3 µM (inactive) and the GI50 [36] was > 100 µM (inactive). For the same molecule, the GI50 [59] was 11.9 µM (inactive), the GI50 [37] was 37.9 µM (inactive) and the GI50 [38] was 34.8 µM (inactive). The GI50 [39] was 9.98 µM (inactive), the GI50 [41] was > 100 µM (inactive) and the GI50 [42] was 42.7 µM (inactive). The GI50 [43] was 58.5 µM (inactive), the GI50 [44] was 27.2 µM (inactive) and the GI50 [45] was 23.3 µM (inactive). The GI50 [46] was 43.8 µM (inactive), the GI50 [48] was 28.6 µM (inactive) and the GI50 [49] was 21.2 µM (inactive). For the same molecule, the GI50 [50] was 57.7 µM (inactive), the GI50 [51] was 44.4 µM (inactive) and the GI50 [52] was 93.3 µM (inactive). The GI50 [53] was 59.8 µM (inactive), the GI50 [54] was 72.8 µM (inactive) and the GI50 [55] was 25 µM (inactive). For the same molecule, the GI50 [57] was 41.1 µM (inactive).
